Reference: patent publication US20210267197A1, “PEPTIDES SIMILAR TO THE NATURAL PEPTAIBOL TRICHOGIN GA IV WITH PHYTOSANITARY ACTIVITIES” (UNIVERSITA' DEGLI STUDI DI PADOVA, priority 2018, published 2021)

Assays:
Botrytis cinerea [1] = test: B. cinerea spore viability / germination assay with resazurin; type: cell-based; details: for Concentration effective in vitro in inhibiting the germination of fungal spores with respect to the untreated control for at least 3 days: Botrytis cinerea; for Time for which spore germination of B. cinerea is inhibited: limited by duration of the experiment
Penicillium expansum = test: In vitro inhibition of fungal spore germination, Penicillium expansum; type: cell-based; details: for Concentration effective in vitro in inhibiting the germination of fungal spores with respect to the untreated control for at least 3 days: Penicillium expansum; for Time for which spore germination of P. expansum is inhibited: peptide at 15 μM, limited by duration of the experiment
Penicillium digitatum = test: In vitro inhibition of fungal spore germination, Penicillium digitatum; type: cell-based; details: for Concentration effective in vitro in inhibiting the germination of fungal spores with respect to the untreated control for at least 3 days: Penicillium digitatum; for Time for which spore germination of P. digitatum is inhibited: peptide at 15 μM, limited by duration of the experiment
Fusarium graminearum = type: cell-based
Botrytis cinerea [2] = test: Bean leaves inoculated with Botrytis cinerea; type: in vivo
B. cinerea = test: Rot symptoms from B. cinerea on vine leaves; type: in vivo, Botrytis cinerea; details: 50 μM
Penicillium italicum = test: In vitro inhibition of fungal spore germination, Penicillium italicum; type: cell-based; details: for Concentration effective in vitro in inhibiting the germination of fungal spores with respect to the untreated control for at least 3 days: Penicillium italicum; for Time for which spore germination of Penicillium italicum is inhibited: peptide at 15 μM, limited by duration of the experiment
Pyricularia oryzae = type: cell-based
Plasmopara viticola = details: for Prevention of development of the disease and production of sporangia of P. viticola: 50 μM aqueous solution, disks of vine leaves
Protocol: The histogram represents the average incidence (±standard error) of infections from P. viticola 12 days after inoculation obtained by performing at least 3 independent biological replicates. […] The incidence is calculated as a percentage ratio of the leaf disks showing the sporulation of the pathogen compared to the total of inoculated disks.
Glera vine leaves were inoculated with sporangia from the oomycete Plasmopara viticola, the causal agent of vine peronospora. The disks infected and then treated with peptides were incubated at 20/22° C. in conditions of high humidity (>92% RH) and in the dark (optimal conditions for the development of the disease) until the end of the experiment.

1-octanoyl-Aib-Gly-Leu-Aib-Gly-Lys(HCl)-Leu-Aib-Gly-Ile-Lol [Peptide K6-Lol]
Concentration effective in vitro in inhibiting the germination of fungal spores with respect to the untreated control for at least 3 days (Botrytis cinerea [1]): 15 µM | Concentration effective in vitro in inhibiting the germination of fungal spores with respect to the untreated control for at least 3 days (Penicillium expansum): 15 µM | Concentration effective in vitro in inhibiting the germination of fungal spores with respect to the untreated control for at least 3 days (Penicillium digitatum): 15 µM

1-octanoyl-Aib-Gly-Leu-Aib-Lys(HCl)-Lys(HCl)-Leu-Aib-Gly-Ile-Leu-NH2 [PEP4-rink]
Concentration effective in vitro in inhibiting the germination of fungal spores with respect to the untreated control for at least 3 days (Botrytis cinerea [1]): 3 µM | Time for which spore germination of B. cinerea is inhibited (Botrytis cinerea [1]; peptide at 3 μM): at least 14 days | Time for which spore germination of B. cinerea is inhibited (Botrytis cinerea [1]; peptide at 15 μM): at least 21 days | Concentration effective in vitro in inhibiting the germination of fungal spores with respect to the untreated control for at least 3 days (Penicillium expansum): 15 µM | Concentration effective in vitro in inhibiting the germination of fungal spores with respect to the untreated control for at least 3 days (Penicillium digitatum): 15 µM | Concentration effective in vitro in inhibiting the germination of fungal spores with respect to the untreated control for at least 3 days (Fusarium graminearum): 15 µM | Reduction in the incidence of rot symptoms from B. cinerea on bean leaves (Botrytis cinerea [2]; 15 μM, 7 days after inoculation): 90% | Reduction in the incidence of B. cinerea (rot symptoms) on bean leaves (Botrytis cinerea [2]; 50 μM): 95% | Reduction in the incidence of rot symptoms from B. cinerea on vine leaves (B. cinerea): 70%

1-octanoyl-Aib-Gly-Leu-Aib-Lys(HCl)-Lys(HCl)-Leu-Aib-Gly-Ile-Lol [PEP4]
Germination of conidia of B. cinerea (Botrytis cinerea [1]; 50 μM, conidia 5×10^5/ml in PDB): germination of the conidia is not observed | Concentration effective in vitro in inhibiting the germination of fungal spores with respect to the untreated control for at least 3 days (Botrytis cinerea [1]): 3 µM | Time for which spore germination of B. cinerea is inhibited (Botrytis cinerea [1]; peptide at 3 μM): at least 7 days | Concentration effective in vitro in inhibiting the germination of fungal spores with respect to the untreated control for at least 3 days (Penicillium expansum): 15 µM | Concentration effective in vitro in inhibiting the germination of fungal spores with respect to the untreated control for at least 3 days (Penicillium digitatum): 15 µM | Concentration effective in vitro in inhibiting the germination of fungal spores with respect to the untreated control for at least 3 days (Penicillium italicum): 15 µM | Concentration effective in vitro in inhibiting the germination of fungal spores with respect to the untreated control for at least 3 days (Pyricularia oryzae): 15 µM | Inhibition of spore germination of Pyricularia oryzae (Pyricularia oryzae; 15 μM): effectively inhibit the spore germination | Protection of bean leaves against infection by Botrytis cinerea (Botrytis cinerea [2]; 50 μM aqueous solution, for at least seven days (duration of the experiment)): protects the bean leaves against the infection caused by Botrytis cinerea | Incidence of the disease (leaf disks showing sporulation / total inoculated disks) (Plasmopara viticola; 30 μM, 12 days after inoculation): < 20% | Prevention of development of the disease and production of sporangia of P. viticola (Plasmopara viticola): almost completely prevents both the development of the disease and the production of sporangia | Time of protection against P. viticola (no disease / no sporangia) (Plasmopara viticola; 50 μM, limited by duration of the experiment): 15 days

1-octanoyl-Aib-Gly-Leu-Aib-Lys(HCl)-Lys(HCl)-Leu-Leu-NH2 [PEP4-corto1-rink]
Time for which spore germination of P. expansum is inhibited (Penicillium expansum): for 6 days (duration of the experiment) | Time for which spore germination of P. expansum is inhibited (Penicillium expansum; listed as Pep4-cortol-rink): 6 days | Time for which spore germination of P. digitatum is inhibited (Penicillium digitatum): for 6 days (duration of the experiment) | Time for which spore germination of P. digitatum is inhibited (Penicillium digitatum; listed as Pep4-cortol-rink): 6 days | Concentration effective in vitro in inhibiting the germination of fungal spores with respect to the untreated control for at least 3 days (Penicillium italicum): 15 µM | Time for which spore germination of Penicillium italicum is inhibited (Penicillium italicum): for 6 days (duration of the experiment) | Time for which spore germination of Penicillium italicum is inhibited (Penicillium italicum; listed as Pep4-cortol-rink): 6 days

1-octanoyl-Aib-Gly-Leu-Aib-Lys(HCl)-Lys(HCl)-Leu-Lol [PEP4-corto]
Concentration effective in vitro in inhibiting the germination of fungal spores with respect to the untreated control for at least 3 days (Botrytis cinerea [1]): 3 µM | Prevention of development of the disease and production of sporangia of P. viticola (Plasmopara viticola): almost completely prevents the development of the disease and the production of sporangia

1-octanoyl-Aib-Lys(HCl)-Leu-Aib-Lys(HCl)-Gly-Leu-Aib-Gly-Ile-Lol [Peptide K25]
Concentration effective in vitro in inhibiting the germination of fungal spores with respect to the untreated control for at least 3 days (Penicillium digitatum): 15 µM | Time for which spore germination of P. digitatum is inhibited (Penicillium digitatum): of Penicillium digitatum for more than 5 days

1-octanoyl-Aib-Lys(HCl)-Lys(HCl)-Leu-Aib-Gly-Ile-Leu-NH2 [PEP4-corto2-rink]
Time for which spore germination of B. cinerea is inhibited (Botrytis cinerea [1]; peptide at 15 μM, listed as Pep4-corto2-rink): 8 days | Time for which spore germination of P. expansum is inhibited (Penicillium expansum; listed as Pep4-corto2-rink): 15 days | Time for which spore germination of P. digitatum is inhibited (Penicillium digitatum; listed as Pep4-corto2-rink): 15 days | Concentration effective in vitro in inhibiting the germination of fungal spores with respect to the untreated control for at least 3 days (Penicillium italicum): 15 µM | Time for which spore germination of Penicillium italicum is inhibited (Penicillium italicum; listed as Pep4-corto2-rink): 15 days
